Measured values: patent publication US20090143279A1 (priority 2007, published 2009)
Counter-ions that a name gives are not always drawn. Like-named read-outs stand apart in the source and are kept apart here.

Legend:
[1] = system: reactive oxygen species; assay type: cell-based, mouse
[2] = system: C2C12 myotubes
[3] = system: nuOXPHOS transcripts; assay type: cell-based, mouse
[4] = system: mtOXPHOS transcripts; assay type: cell-based, mouse
[5] = system: OXPHOS gene expression; assay type: cell-based, mouse
[6] = system: cellular dehydrogenase activity
[7] = system: cytochrome c; assay type: cell-based, mouse
[8] = system: mitochondrial membrane potential; assay type: cell-based, mouse
[9] = composite Z-score vs DMSO, Conc 20 μM
[10] = Conc 20 μM, normalized score vs mock-treated (DMSO) wells
[11] = normalized composite Z-score vs mock-treated (DMSO) wells, Conc 20 μM
[12] = composite Z-score vs mock-treated (DMSO) wells, concentration of each compound in μM
[13] = composite Z-score vs DMSO wells, Conc 20 μM
[14] = composite Z-score vs mock-treated (DMSO) wells, Conc 20 μM
[15] = 14.26 μM, composite Z-score vs DMSO
[16] = 20 μM, composite Z-score vs DMSO

Structure (SMILES): CCN(CCCc1ccccc1)CCCc1ccccc1 [alverine citrate]
- ROS [1, 9]: 1.116
- Viability [2, 9]: 0.885
- nucOX [3, 9]: −0.098
- mitoOX [4, 9]: −0.442
- GE-HTS [5, 9]: −0.238
- MTT [6, 9]: −0.018
- cyt c [7, 9]: −0.433
- ΔΨm [8, 9]: 0.433

Structure (SMILES): COc1ccc(-c2oc3cc(O[C@@H]4O[C@H](CO)[C@@H](O)[C@H](O)[C@H]4O)c(OC)c(O)c3c(=O)c2OC)cc1O [centaurein]
- ROS (composite Z-score) [1, 10]: −0.090
- Viability (composite Z-score) [2, 10]: −0.006
- nucOX (composite Z-score) [3, 10]: 0.388
- mitoOX (composite Z-score) [4, 10]: 0.657
- GE-HTS (composite Z-score) [5, 10]: 0.497
- MTT (composite Z-score) [6, 10]: −1.640
- cyt c (composite Z-score) [7, 10]: −0.039
- ΔΨm (composite Z-score) [8, 10]: −0.744

Structure (SMILES): COc1ccc(-c2coc3c(OC)c(O)ccc3c2=O)cc1 [7-hydroxy-8,4′-dimethoxyisoflavone]
- ROS [1, 11]: 1.404
- Viability [2, 11]: −1.022
- nucOX [3, 11]: −0.994
- mitoOX [4, 11]: −0.667
- GE-HTS [5, 11]: −0.962
- MTT [6, 11]: −1.073
- cyt c [7, 11]: 0.363
- ΔΨm [8, 11]: −0.417

Structure (SMILES): NCCCCCN [cadaverine]
- ROS [1, 9]: 0.160
- Viability [2, 9]: −1.003
- nucOX [3, 9]: −0.667
- mitoOX [4, 9]: −0.205
- GE-HTS [5, 9]: −0.553
- MTT [6, 9]: −0.915
- cyt c [7, 9]: −0.135
- ΔΨm [8, 9]: −0.730

Structure (SMILES): CN[C@@H](Cc1c[nH]c2ccccc12)C(=O)O [abrine]
- ROS (composite Z-score) [1]: 1.698
- Viability (composite Z-score) [2]: 0.206
- nucOX (composite Z-score) [3]: 0.430
- mitoOX (composite Z-score) [4]: 0.383
- GE-HTS (composite Z-score) [5]: 0.459
- MTT (composite Z-score) [6]: −1.203
- cyt c (composite Z-score) [7]: −0.094
- ΔΨm (composite Z-score) [8]: −0.332

Structure (SMILES): COc1ccc2c(c1)CC[C@@H]1[C@@H]2CC[C@]2(C)[C@@H](O)CC[C@@H]12 [estradiol methyl ether]
- ROS [1, 9]: 0.411
- Viability [2, 9]: 0.510
- nucOX [3, 9]: 0.214
- mitoOX [4, 9]: −0.209
- GE-HTS [5, 9]: 0.099
- MTT [6, 9]: −0.685
- cyt c [7, 9]: 1.670
- ΔΨm [8, 9]: −0.007

Structure (SMILES): CN1CCCC(CC2c3ccccc3Sc3ccccc32)C1 (centres unmarked) [metixene]
- ROS [1]: −0.834
- Viability [2]: 1.221
- nucOX [3]: −1.058
- mitoOX [4]: −1.236
- GE-HTS [5]: −1.190
- MTT [6]: −0.786
- cyt c [7]: 0.097
- ΔΨm [8]: −0.713

Structure (SMILES): CN1Cc2c(ccc3c2OCO3)[C@@H]2[C@H]1c1cc3c(cc1C[C@@H]2O)OCO3 [(+)-chelidonine]
- ROS [1, 12]: −1.486
- Viability [2, 12]: −1.005
- nucOX [3, 12]: 0.901
- mitoOX [4, 12]: 0.836
- GE-HTS [5, 12]: 0.941
- MTT [6, 12]: −1.988
- cyt c [7, 12]: −1.144
- ΔΨm [8, 12]: −1.123

Structure (SMILES): COC(=O)[C@@H]1[C@H]2C[C@H]3c4[nH]c5ccccc5c4CCN3C[C@@H]2CC[C@@H]1O [yohimbine]
- ROS [1]: 0.159
- Viability [2]: −0.860
- nucOX [3]: 0.169
- mitoOX [4]: −0.471
- GE-HTS [5]: −0.041
- MTT [6]: −1.915
- cyt c [7]: 0.699
- ΔΨm [8]: −1.197

Structure (SMILES): CNCCc1ccccn1 [betahistine]
- ROS [1, 13]: −0.176
- Viability [2, 13]: 1.068
- nucOX [3, 13]: −0.008
- mitoOX [4, 13]: −0.718
- GE-HTS [5, 13]: −0.284
- MTT [6, 13]: 0.861
- cyt c [7]: 0.296
- cyt c [7, 13]: 0.386
- ΔΨm [8, 13]: 0.125

Structure (SMILES): CC(C)[C@@H](C)C=C[C@@H](C)[C@H]1CC[C@H]2C3=CCC4CC(=O)CC[C@]4(C)[C@H]3CC[C@]12C (some centres unmarked) [ergosta-7,22-dien-3-one]
- ROS [1, 9]: 0.912
- Viability [2, 9]: −0.892
- nucOX [3, 9]: −0.764
- mitoOX [4, 9]: −0.415
- GE-HTS [5, 9]: −0.708
- MTT [6, 9]: −2.474
- cyt c [7, 9]: 0.221
- ΔΨm [8, 9]: −0.544

Structure (SMILES): CC[C@H](C=C[C@@H](C)[C@H]1CC[C@H]2[C@@H]3CCC4=CC(=O)CC[C@]4(C)[C@H]3CC[C@]12C)C(C)C [stigmasta-4,22-dien-3-one]
- ROS [1]: 0.550
- Viability [2]: 0.023
- nucOX [3]: −0.094
- mitoOX [4]: −0.118
- GE-HTS [5]: −0.138
- MTT [6]: −1.294
- cyt c [7]: 0.434
- ΔΨm [8]: −0.299

Structure (SMILES): C[C@]12CC[C@H](O)C[C@@H]1CC[C@@H]1[C@@H]2CC[C@]2(C)[C@@H](O)CC[C@@H]12 [5alpha-androstan-3beta,17beta-diol]
- ROS [1, 9]: 0.607
- Viability [2, 9]: −0.204
- nucOX [3, 9]: 0.059
- mitoOX [4, 9]: 0.270
- GE-HTS [5, 9]: 0.123
- MTT [6, 9]: −0.454
- cyt c [7, 9]: 0.280
- ΔΨm [8, 9]: −1.116

Structure (SMILES): CCOC(=O)c1oc2c(OC)c(O)cc(O)c2c(=O)c1-c1cc(OC)c(OC)c(OC)c1
- ROS [1, 14]: 0.244
- Viability [2, 14]: −1.124
- nucOX [3, 14]: −1.229
- mitoOX [4, 14]: −1.218
- GE-HTS [5, 14]: −1.306
- MTT [6, 14]: −0.761
- cyt c [7, 14]: −0.783
- ΔΨm [8, 14]: −0.397

Structure (SMILES): C[C@]12CC[C@@H]3c4ccc(O)cc4CC[C@H]3[C@@H]1CC[C@@H]2OC(=O)CCC1CCCC1 [estradiol cypionate]
- ROS [1, 13]: −0.010
- Viability [2, 13]: 0.219
- nucOX [3, 13]: 0.072
- mitoOX [4, 13]: −0.418
- GE-HTS [5, 13]: −0.124
- MTT [6, 13]: −2.428
- cyt c [7, 13]: 0.408
- ΔΨm [8, 13]: −0.489

Structure (SMILES): CC1(C)[C@@H](O[C@H]2O[C@H](C(=O)O)[C@@H](O)[C@H](O)[C@H]2O[C@@H]2O[C@H](C(=O)O)[C@@H](O)[C@H](O)[C@H]2O)CC[C@]2(C)[C@H]3C(=O)C=C4[C@@H]5C[C@@](C)(C(=O)O)CC[C@]5(C)CC[C@@]4(C)[C@]3(C)CC[C@@H]12 [glycyrrhizic acid]
- ROS [1, 9]: 0.578
- Viability [2, 9]: 0.254
- nucOX [3, 9]: −0.227
- mitoOX [4, 9]: −0.753
- GE-HTS [5, 9]: −0.424
- MTT [6, 9]: −0.746
- cyt c [7, 9]: 0.339
- ΔΨm [8, 9]: −0.606

Structure (SMILES): CCN(CC)CCNC(=O)COc1ccc(OC)cc1 [mefexamide]
- ROS [1, 15]: 1.172
- ROS [1, 16]: 0.837
- Viability [2, 15]: −0.541
- Viability [2, 16]: −2.120
- nucOX [3, 15]: −0.498
- nucOX [3, 16]: −0.253
- mitoOX [4, 15]: 0.009
- mitoOX [4, 16]: −0.101
- GE-HTS [5, 15]: −0.340
- GE-HTS [5, 16]: −0.215
- MTT [6, 15]: −1.363
- MTT [6, 16]: −1.270
- cyt c [7, 15]: 0.129
- cyt c [7, 16]: −0.257
- ΔΨm [8, 15]: −0.719
- ΔΨm [8, 16]: −0.643

Structure (SMILES): CC1(C)CC[C@]2(C(=O)O)CC[C@]3(C)C(=CC[C@@H]4[C@@]5(C)CC[C@H](O)C(C)(C)[C@@H]5CC[C@]43C)[C@@H]2C1 [oleanoic acid]
- ROS [1, 14]: −0.144
- Viability [2, 14]: 0.492
- nucOX [3, 14]: −1.408
- mitoOX [4, 14]: −1.014
- GE-HTS [5, 14]: −1.379
- MTT [6, 14]: −0.720
- cyt c [7, 14]: 0.754
- ΔΨm [8, 14]: −0.910

Structure (SMILES): CN[C@H]1CC[C@@H](c2ccc(Cl)c(Cl)c2)c2ccccc21 [sertraline]
- ROS [1]: 0.090
- Viability [2]: 0.279
- nucOX [3]: −1.476
- mitoOX [4]: 0.020
- GE-HTS [5]: −1.068
- MTT [6]: −1.905
- cyt c [7]: −1.121
- ΔΨm [8]: 0.420
